This assay deals with FL-SMN mRNA (SMN transcript containing exons 7 and 8). Briefly: Live-cell assay to measure changes in FL-SMN mRNA levels (qPCR) after exposure to the compounds. Conditions: fibroblasts derived from patients SMA (GM03813); 24 hours incubation. The format is cell-based, human. Put shortly: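 SMA patient fibroblasts (GM03813) in DMEM/10% FBS were treated with compound (0.1% DMSO final) for 24 h. FL-SMN and Δ7 mRNA were measured by RT-qPCR against oligo DNA standard curves and normalised to GAPDH. Values are % of the DMSO control, binned by asterisk from ≥100% to ≥180%.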

As for `CCN1CCC(F)(c2nc3cnc(-c4cc(F)c5nc(C)cn5c4)cc3c(=O)[nH]2)CC1` [Example 109, 2-(1-ethyl-4-fluoropiperidin-4-yl)-6-(8-fluoro-2-methylimidazo[1,2-a]pyridin-6-yl)pyrido[3,4-d]pyrimidin-4(3H)-one], the “Percentage of increase (FL-SMN mRNA standardized against GAPDH, DMSO control set as 100%)” value is recorded as “*** (equal to or higher than 150% but lower than 180%)”.
On to `COCCN1CCC(F)(c2nc3ccc(-c4cc(F)c5nc(C)cn5c4)cc3c(=O)[nH]2)CC1` [Example 110, 2-[4-fluoro-1-(2-methoxyethyl)piperidin-4-yl]-6-(8-fluoro-2-methylimidazo[1,2-a]pyridin-6-yl)quinazolin-4(3H)-one], for which the “Percentage of increase (FL-SMN mRNA standardized against GAPDH, DMSO control set as 100%)” value is “** (equal to or higher than 120% but lower than 150%)”.
For the compound `Cc1nc2c(F)cc(-c3cc4c(=O)[nH]c(C5(F)CCNCC5)nc4cn3)cc2o1` [Example 111, 6-(4-fluoro-2-methy-1,3-benzoxazol-6-yl)-2-(4-fluoropiperidin-4-yl)pyrido[3,4-d]pyrimidin-4(3H)-one], the “Percentage of increase (FL-SMN mRNA standardized against GAPDH, DMSO control set as 100%)” value is reported as “**** (equal to or higher than 180%)”.
For `COCCN1CCC(c2nc3cnc(-c4cc(F)c5nc(C)cn5c4)cc3c(=O)[nH]2)CC1` [Example 112, 6-(8-fluoro-2-methylimidazo[1,2-a]pyridin-6-yl)-2-[1-(2-methoxyethyl)piperidin-4-yl]pyrido[3,4-d]pyrimidin-4(3H)-one] the value was “**** (equal to or higher than 180%)”; for `COCCN1CCC(c2nc3cnc(-c4cc(F)c5nc(C)oc5c4)cc3c(=O)[nH]2)CC1` [Example 113, 6-(4-fluoro-2-methyl-1,3-benzoxazol-6-yl)-2-[1-(2-methoxyethyl)piperidin-4-yl]pyrido[3,4-d]pyrimidin-4(3H)-one], “**** (equal to or higher than 180%)”; for `Cc1cn2cc(-c3cc4c(=O)[nH]c(C5CCN(C6CC6)CC5)nc4cn3)cc(F)c2n1` [Example 114, 2-(1-cyclopropylpiperidin-4-yl)-6-(8-fluoro-2-methylimidazo[1,2-a]pyridin-6-yl)pyrido[3,4-d]pyrimidin-4(3H)-one], “**** (equal to or higher than 180%)”.
Regarding `Cc1nc2c(F)cc(-c3cc4c(=O)[nH]c(C5CCN(C6CC6)CC5)nc4cn3)cc2o1` [Example 115, 2-(1-cyclopropylpiperidin-4-yl)-6-(4-fluoro-2-methyl-1,3-benzoxazol-6-yl)pyrido[3,4-d]pyrimidin-4(3H)-one], the “Percentage of increase (FL-SMN mRNA standardized against GAPDH, DMSO control set as 100%)” value is “**** (equal to or higher than 180%)”.
`Cc1cn2nc(-c3nc4ccc(N5CCN(C6CC6)CC5)cc4c(=O)[nH]3)cc2cn1` [Example 116, 6-(4-cyclopropylpiperazin-1-yl)-2-(6-methylpyrazolo[1,5-a]pyrazin-2-yl)quinazolin-4(3H)-one]: the “Percentage of increase (FL-SMN mRNA standardized against GAPDH, DMSO control set as 100%)” value was “**** (equal to or higher than 180%)”.
As for `Cc1cc2nc(-c3nc4ccc(N5CCN(C6CC6)CC5)cc4c(=O)[nH]3)cn2c(C)n1` [Example 117, 6-(4-cyclopropylpiperazin-1-yl)-2-(5,7-dimethylimidazo[1,2-c]pyrimidin-2-yl)quinazolin-4(3H)-one], the entry is “**** (equal to or higher than 180%)”; as for `Cc1cn2nc(-c3nc4ccc(N5CCN(C6CC6)CC5)cc4c(=O)[nH]3)ccc2n1` [Example 118, 6-(4-cyclopropylpiperazin-1-yl)-2-(2-methylimidazo[1,2-b]pyridazin-6-yl)quinazolin-4(3H)-one], “*** (equal to or higher than 150% but lower than 180%)”; as for `Cc1cn2nc(-c3nc4ccc(N5CCN(C(C)C)CC5)cc4c(=O)[nH]3)cc2c(C)n1` [Example 119, 2-(4,6-dimethylpyrazolo[1,5-a]pyrazin-2-yl)-6-(4-isopropylpiperazin-1-yl)quinazolin-4(3H)-one bistrifluoroacetate], “**** (equal to or higher than 180%)”.
As for `Cc1cn2nc(-c3nc4ccc(N5CCN(CC6CC6)CC5)cc4c(=O)[nH]3)cc2c(C)n1` [Example 120, 6-[4-(cyclopropyImethyl)piperazin-1-yl]-2-(4,6-dimethylpyrazolo[1,5-a]pyrazin-2-yl)quinazolin-4(3H)-one bistrifluoroacetate], the “Percentage of increase (FL-SMN mRNA standardized against GAPDH, DMSO control set as 100%)” value is given as “**** (equal to or higher than 180%)”.
As for `Cc1cn2nc(-c3nc4ccc(N5CCN6CCC[C@H]6C5)cc4c(=O)[nH]3)cc2c(C)n1` [Example 121, (S)-2-(4,6-dimethylpyrazolo[1,5-a]pyrazin-2-yl)-6-(hexahydropyrrolo[1,2-a]pyrazin-2(1H)-yl)quinazolin-4(3H)-one bistrifluoroacetate], the “Percentage of increase (FL-SMN mRNA standardized against GAPDH, DMSO control set as 100%)” value is recorded as “**** (equal to or higher than 180%)”.
In the case of `Cc1cn2nc(-c3nc4ccc(N5CCNC(C)(C)C5)cc4c(=O)[nH]3)cc2c(C)n1` [Example 122, 6-(3,3-Dimethylpiperazin-1-yl)-2-(4,6-dimethylpyrazolo[1,5-a]pyrazin-2-yl)quinazolin-4(3H)-one bistrifluoroacetate], the “Percentage of increase (FL-SMN mRNA standardized against GAPDH, DMSO control set as 100%)” value was “**** (equal to or higher than 180%)”.
As for `Cc1cn2nc(-c3nc4ccc(N5CCNC6(CC6)C5)cc4c(=O)[nH]3)cc2c(C)n1` [Example 123, 2-(4,6-dimethylpyrazolo[1,5-a]pyrazin-2-yl)-6-(4,7-diazaspiro[2.5Joctan-7-yl)quinazolin-4(3H)-one bistrifluoroacetate], the entry is “**** (equal to or higher than 180%)”; as for `Cc1cn2nc(-c3nc4ccc(N5CCN6CCCCC6C5)cc4c(=O)[nH]3)cc2c(C)n1` (stereo not drawn) [Example 124, 2-(4,6-dimethylpyrazolo[1,5-a]pyrazin-2-yl)-6-(octahydro-2H-pyrido[1,2-a]pyrazin-2-yl)quinazolin-4(3H)-one], “*** (equal to or higher than 150% but lower than 180%)”.
For the compound `Cc1cn2nc(-c3nc4ccc(N5CCN6CCCCC6C5)cc4c(=O)[nH]3)cc2c(C)n1` (stereo not drawn) [Example 125, 2-(4,6-dimethylpyrazolo[1,5-a]pyrazin-2-yl)-6-(octahydro-2H-pyrido[1,2-a]pyrazin-2-yl)quinazolin-4(3H)-one (distomer)], the “Percentage of increase (FL-SMN mRNA standardized against GAPDH, DMSO control set as 100%)” value is given as “** (equal to or higher than 120% but lower than 150%)”.
Turning to `Cc1cn2nc(-c3nc4ccc(N5CCN6CCC[C@@H]6C5)cc4c(=O)[nH]3)cc2c(C)n1` [Example 126, (R)-2-(4,6-dimethylpyrazolo[1,5-a]pyrazin-2-yl)-6-(hexahydropyrrolo[1,2-a]pyrazin-2(1H)-yl)quinazolin-4(3H)-one], the “Percentage of increase (FL-SMN mRNA standardized against GAPDH, DMSO control set as 100%)” value is given as “**** (equal to or higher than 180%)”.
For the compound `Cc1cn2nc(-c3nc4ccc(N5CCN(C)C[C@@H]5C)cc4c(=O)[nH]3)cc2c(C)n1` [Example 127, (S8)-6-(2,4-simethylpiperazin-1-yl)-2-(4,6-dimethylpyrazolo[1,5-a]pyrazin-2-yl)quinazolin-4(3H)-one], the “Percentage of increase (FL-SMN mRNA standardized against GAPDH, DMSO control set as 100%)” value is “*** (equal to or higher than 150% but lower than 180%)”.
On to `Cc1cn2nc(-c3nc4ccc(N5CCN(C)C[C@H]5C)cc4c(=O)[nH]3)cc2c(C)n1` [Example 128, (R)-6-(2,4-simethylpiperazin-1-yl)-2-(4,6-dimethylpyrazolo[1,5-a]pyrazin-2-yl)quinazolin-4(3H)-one], for which the “Percentage of increase (FL-SMN mRNA standardized against GAPDH, DMSO control set as 100%)” value is reported as “**** (equal to or higher than 180%)”.
For `CC[C@H]1CN(C)CCN1c1ccc2nc(-c3cc4c(C)nc(C)cn4n3)[nH]c(=O)c2c1` [Example 129, (S)-2-(4,6-dimethylpyrazolo[1,5-a]pyrazin-2-yl)-6-(2-ethyl-4-methylpiperazin-1-yl)quinazolin-4(3H)-one] the value was “*** (equal to or higher than 150% but lower than 180%)”; for `CCN1CCN(c2ccc3nc(-c4cc5c(C)nc(C)cn5n4)[nH]c(=O)c3c2)[C@@H](C)C1` [Example 130, (S)-2-(4,6-dimethylpyrazolo[1,5-a]pyrazin-2-yl)-6-(4-ethyl-2-methylpiperazin-1-yl)quinazolin-4(3H)-one], “*** (equal to or higher than 150% but lower than 180%)”.
In the case of `CCN1CCN(c2ccc3nc(-c4cc5c(C)nc(C)cn5n4)[nH]c(=O)c3c2)[C@H](C)C1` [Example 131, (R)-2-(4,6-dimethylpyrazolo[1,5-a]pyrazin-2-yl)-6-(4-ethyl-2-methylpiperazin-1-yl)quinazolin-4(3H)-one], the “Percentage of increase (FL-SMN mRNA standardized against GAPDH, DMSO control set as 100%)” value is on record as “*** (equal to or higher than 150% but lower than 180%)”.
Turning to `CC[C@@H]1CN(C)CCN1c1ccc2nc(-c3cc4c(C)nc(C)cn4n3)[nH]c(=O)c2c1` [Example 132, (R)-2-(4,6-dimethylpyrazolo[1,5-a]pyrazin-2-yl)-6-(2-ethyl-4-methylpiperazin-1-yl)quinazolin-4(3H4)-one], the “Percentage of increase (FL-SMN mRNA standardized against GAPDH, DMSO control set as 100%)” value is “*** (equal to or higher than 150% but lower than 180%)”.
